Reference: ChEMBL document CHEMBL4825761, “Utilization of Metabolite Identification and Structural Data to Guide Design of Low-Dose IDO1 Inhibitors” (ACS Med Chem Lett, 2021)

How the values were obtained:
[1] = Plasma concentration in CD1 mouse xenografted with mouse CT26 cells overexpressing human IDO1 at 3 mg/kg, po administered as single dose measured after 16 hrs by mass spectrometry; assay type: ADME, organism-based; conditions: in vivo, BLD = below limit of detection
[2] = Plasma concentration in CD1 mouse xenografted with mouse CT26 cells overexpressing human IDO1 at 3 mg/kg, po administered as single dose measured after 8 hrs by mass spectrometry; assay type: ADME, organism-based
[3] = Plasma concentration in CD1 mouse xenografted with mouse CT26 cells overexpressing human IDO1 at 3 mg/kg, po administered as single dose measured after 4 hrs by mass spectrometry; assay type: ADME, organism-based
[4] = Plasma concentration in CD1 mouse xenografted with mouse CT26 cells overexpressing human IDO1 at 3 mg/kg, po administered as single dose measured after 2 hrs by mass spectrometry; assay type: ADME, organism-based
[5] = Half life in dog; assay type: ADME, Canis lupus familiaris; conditions: in vivo
[6] = Oral bioavailability in dog; assay type: ADME, organism-based, Canis lupus familiaris; conditions: in vivo
[7] = Volume of distribution in dog; assay type: ADME, Canis lupus familiaris; conditions: in vivo
[8] = Oral bioavailability in Wistar Han rat by LC-MS/MS analysis; assay type: ADME, organism-based; conditions: in vivo
[9] = Unbound clearance in dog; assay type: ADME, Canis lupus familiaris; conditions: in vivo
[10] = Half life in Wistar Han rat by LC-MS/MS analysis; assay type: ADME; conditions: in vivo
[11] = Lipophilicity, logD of the compound by HPLC analysis; assay type: physicochemical
[12] = Volume of distribution in Wistar Han rat by LC-MS/MS analysis; assay type: ADME; conditions: in vivo
[13] = Unbound clearance in Wistar Han rat by LC-MS/MS analysis; assay type: ADME; conditions: in vivo
[14] = target: T1, Indoleamine 2,3-dioxygenase 1 (Homo sapiens, UniProt P14902); experiment: Inhibition of IDO1 in human HeLa cells; assay type: cell-based
Target sequence in this assay (P14902 whole entry): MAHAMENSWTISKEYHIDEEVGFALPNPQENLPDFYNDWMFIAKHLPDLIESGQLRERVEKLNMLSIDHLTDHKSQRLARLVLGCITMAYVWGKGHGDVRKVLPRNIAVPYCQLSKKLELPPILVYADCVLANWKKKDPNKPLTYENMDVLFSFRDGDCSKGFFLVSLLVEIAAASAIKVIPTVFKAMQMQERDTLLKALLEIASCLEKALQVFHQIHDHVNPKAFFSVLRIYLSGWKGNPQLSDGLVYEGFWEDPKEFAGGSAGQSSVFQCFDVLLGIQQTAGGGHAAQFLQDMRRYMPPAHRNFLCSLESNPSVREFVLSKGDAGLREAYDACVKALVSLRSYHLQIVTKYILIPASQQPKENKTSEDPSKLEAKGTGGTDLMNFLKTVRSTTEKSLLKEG

[15] = Clearance in dog; assay type: ADME, Canis lupus familiaris; conditions: in vivo
[16] = Clearance in Wistar Han rat by LC-MS/MS analysis; assay type: ADME; conditions: in vivo
[17] = target: T1, Indoleamine 2,3-dioxygenase 1; experiment: Inhibition of IDO1 in IFNgamma/LPS stimulated human whole blood assessed as reduction in kynurenine production using tryptophan as substrate preincubated with compound for 15 mins followed by incubation with IFNgamma/LPS for overnight by LC/MS/MS analysis; assay type: tissue-based

Cp [1]	concentration at 8 h [2] [nM]	concentration at 4 h [3] [nM]	concentration at 2 h [4] [nM]	half-life [5] [h]	bioavailability [6] [%]	Vd [7] [L/kg]	bioavailability [8] [%]	CL free [9] [mL/min/kg]	half-life [10] [h]	logD [11]	Vd [12] [L/kg]	CL free [13] [mL/min/kg]	IC50 [14] [nM]	clearance [15] [mL/min/kg]	clearance [16] [mL/min/kg]	IC50 [17] [nM]	fIC50 [17] [nM]	Compound
Bld	30	90	210	–	–	–	–	–	–	–	–	–	–	–	–	–	–	Cc1nccc(N2CCCc3nc(C4(NC(=O)c5ccc(F)cc5)CC4)ccc32)n1
–	–	–	–	9	46	1.3	46	26	1.9	2.4	1.4	307	2	12.3	16.7	16	0.8	Cc1nccc(N2C[C@@H]3C[C@@H]3c3nc(C4(NC(=O)c5ccc(F)cc5)CC4)ccc32)n1
